Here are results for eight molecules from US20180092920A1, “METHOD FOR TREATING TAU PROTEIN-MEDIATED DEGENERATIVE NEURONAL DISEASE” (SEOUL NATIONAL UNIVERSITY R&DB FOUNDATION, priority 2012, published 2018).

In data set [1] the test system is HT22/Tau #1 transformed cell line. Briefly: Neurite growth and cell viability in HT22/Tau #1 cells by fluorescence microscopy. The format is cell-based, mouse. Particulars: 25 μM pretreatment, 24 hours, neuronal cells expressing tau and ALK.Fc. As to the method:
A HT22/Tau #1 transformed cell line was cotransfected with pGFP and pcDNA or pALK after pretreated with 25 μM of roscovitine. Thereafter, the resultant was cultured for 24 hours with/without doxycycline (Dox) treatment. Neurite growth and cell viability were measured through a fluorescence microscopy. Relative ratio of neurites was measured by the number of neuronal cells verses the length of neurites. Consequently, the reduction in neurite growth and the increase in cell death by ALK and tau in neuronal cells expressing tau and ALK.Fc were recovered through the CDK5 inhibitor, roscovitine, treatment (FIG. 9B).

The subject of data set [2] is ALK-mediated tau phosphorylation. Particulars: for ALK-mediated tau phosphorylation: HT22 cells, pGFP-tau + pALK.Fc, 24 hours, dependent on treating amount.
Description: In addition, examined was influence of a tau kinase specific inhibitor on ALK-induced tau phosphorylation. […] Thereafter, western bolt was performed using the cell extract. The used antibodies are as follow: PHF-1 (p-Ser396/404; Davies), CP13 (p-S202; Davies), MC-1 (conformational change; Davies), P35/25 (Cell signaling, #2680), TG5 (220-240; generously provided by Dr. Peter Davies, Albert Einstein College of Medicine, NY), -actin (Sigma, A2668), ERK (Cell signaling, #9102), p-ERK (Cell signaling, #9101), GSK3β (BD Biosciences, 610201), and p-GSK3β (p-Ser9; Cell signaling, #9323).
Another data set concerns HT22 cells. Particulars: 25 iM roscovitine, 1 μM U0126, 24 hours.
Another data set concerns the target T1, CDK5 (Mus musculus, UniProt P49615).
T1 construct: endogenous in cells; host or cells: HT22 cells cotransfected with pGFP-tau, pALK.Fc and pCDK5 shRNA #1 or #2
Briefly: ALK/Tau cell death in HT22 cells with CDK5 shRNA (LIVE/DEAD Viability/Cytotoxicity kit). The format is cell-based. Particulars: pGFP-tau + pALK.Fc + shRNA, 48 hours after transfection. As to the method:
Moreover, the present inventor observed neurotoxicity of ALK/Tau by using CDK5 shRNA. HT22 cells cotransfected with pGFP-tau and pALK.Fc constructs together with either pCDK5 shRNA #1 or #2. After 48 hours of the transfection, cell death was measured by using LIVE/DEAD Viability/Cytotoxicity kit (Molecular Probes). As the same as above experimental results, it was observed that cell death induced by ALK/Tau was reduced when endogenous CDK5 expression was inhibited using shRNA (FIG. 8D). The used pCDK5 shRNA #1 was characterized by having a polynucleotide having the nucleotide sequence of SEQ ID No. 1 (5′-[…]-3′), and pCDK5 shRNA #2 was characterized by having a polynucleotide having the nucleotide sequence of SEQ ID No. 2 (5′-[…]-3′). […] The results shown in FIGS. 8A to 8D were mean±S.D obtained by triplicate experiments.

In a further data set the test system is HT22/Tau #1 cells. Briefly: Cell death of HT22/Tau #1 cells transfected with ALK.Fc and treated with ALK inhibitor (fluorescence microscopy, cell morphology). The format is cell-based, mouse. Particulars: 20 nM, 24 hours; decreased from 42% without inhibitor. As for the experimental part:
Then, cell death was determined through a fluorescence microscopy based on cell morphology. Thereafter, cells were extracted and phosphorylation of tau, ERK, CDK5 and ALK was measured through western blot using respective antibodies. The error bar of the graph indicates mean±S.D. (n=4).

Data set [3] concerns tau aggregation caused by ALK in HT22 cells. Briefly: Tau aggregation in HT22 cells cotransfected with pmALK and pGFP-tau, counted by fluorescence microscopy. The format is cell-based, mouse. As to conditions: pmALK + pGFP-tau, emodin treatment. As for the experimental part: To examine whether mouse ALK increases aggregation and phosphorylation of tau, a pGFP-tau-based functional screening method of which availability was validated in the Experiment Example 1 was used. […] The transfection was performed while amounts of cotransfected pcDNA, pGSK3β CA, and pmALK constructs were increased to 100, 200, and 400 ng. After 24 hours of transfection, aggregation of tau was examined as the number of GFP-positive cells appeared to be aggregated by using a fluorescence microscopy. After then, the cells were extracted to examine phosphorylation of tau by analyzing PHF-1 protein expression with western blot. Subsequently, the present inventor examined aggregation and phosphorylation of tau caused by coexpression of mouse tau and mouse ALK as observed in Experimental Example 1-1 through treatment of an inhibitor of ERK activation and PHF aggregation. Specifically, HT22 cells were cotransfected with pmALK and pGFP-tau constructs, and condensation of cells depending whether emodin was treated or not was counted, wherein emodin is an inhibitor of ERK activation and PHF aggregation. Then, the cells were extracted to examine a phosphorylation level of tau protein by using PHF-1 antibody and Tau-1 antibody.

Data set [4] deals with tau protein phosphorylation. Briefly: Western blot of tau phosphorylation (PHF-1, Tau-1 antibodies) in HT22 cells cotransfected with pmALK and pGFP-tau. The format is cell-based, mouse. As to conditions: pmALK + pGFP-tau, emodin treatment. As to the method:
Subsequently, the present inventor examined aggregation and phosphorylation of tau caused by coexpression of mouse tau and mouse ALK as observed in Experimental Example 1-1 through treatment of an inhibitor of ERK activation and PHF aggregation. Specifically, HT22 cells were cotransfected with pmALK and pGFP-tau constructs, and condensation of cells depending whether emodin was treated or not was counted, wherein emodin is an inhibitor of ERK activation and PHF aggregation. Then, the cells were extracted to examine a phosphorylation level of tau protein by using PHF-1 antibody and Tau-1 antibody.
Background: A western blot detects proteins with antibodies after separation by electrophoresis.

Data set [5] concerns tau aggregation caused by ALK in HT22 cells. As to conditions: emodin, inhibitor of PHF aggregation; given with literature references; cited from earlier work.
The test system of a further data set is TauC3 AD model mice. Briefly: Memory tests (Y-MAZE, novel object recognition, passive avoidance) in TauC3 AD model mice. The format is in vivo, mouse. Particulars: TauC3 mice one-month-old, icv injection 9 pg, after 17 days. As for the experimental part: TauC3 mice, which were produced by the present inventor, are a tau Alzheimer's mouse model showing early memory defect by expressing tauC3 in a mouse brain, wherein the tauC3 has C-terminal of which 20 amino acids were eliminated by caspase-3 (see Korean Patent No. 1213325). […] After 17 days, memory was measured and compared by Y-MAZE (FIGS. 14A and 14B), novel object recognition (FIG. 14C) and passive avoidance test (FIG. 14D). Consequently, as shown in FIGS. 14A to 14D, memory of mock (a control) in TauC3 TG mice was remarkably declined while memory decline of the ALK inhibitor treating group was suppressed in all three types of behavior tests.

Data set [6] concerns tau phosphorylation and signaling proteins in brain. Briefly: Western blot of brain tissue (hippocampus) of TauC3 mice after the behavior tests. It is filed as in vivo, mouse.

T1 sequence (P49615 whole entry): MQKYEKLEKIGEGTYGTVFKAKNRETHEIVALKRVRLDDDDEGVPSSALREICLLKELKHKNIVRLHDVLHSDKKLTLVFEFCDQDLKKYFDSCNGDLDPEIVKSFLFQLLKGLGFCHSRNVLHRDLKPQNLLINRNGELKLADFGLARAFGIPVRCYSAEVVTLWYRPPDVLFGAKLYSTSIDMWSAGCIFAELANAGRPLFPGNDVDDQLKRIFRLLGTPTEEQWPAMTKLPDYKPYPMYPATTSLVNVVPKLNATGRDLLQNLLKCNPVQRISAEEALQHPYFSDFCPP

For the molecule `CC[C@H](CO)Nc1nc(NCc2ccccc2)c2ncn(C(C)C)c2n1` [roscovitine], in data set [1], the “increase in cell death by ALK and tau” value is on record as “recovered”; the “reduction in neurite growth by ALK and tau” value is listed as “recovered”. In [2], the ALK-mediated tau phosphorylation result is “significantly reduced”. Further, the “ALK.Fc/Tau-mediated neurotoxicity (cell death)” value in the data set on HT22 cells is recorded as “significantly reduced”.

Turning to “pCDK5 shRNA #2: CDK5 shRNA having the nucleotide sequence of SEQ ID No. 2 (5′-ACTCCACGTCCATCGACAT-3′)”, the “cell death induced by ALK/Tau” value in the data set with CDK5 is listed as “reduced”.

As for `COc1cc(N2CCC(N3CCN(C)CC3)CC2)ccc1Nc1ncc(Cl)c(Nc2ccccc2S(=O)(=O)C(C)C)n1` [NVP-TAE684], in the data set with HT22/Tau #1 cells, the cell death came to 10%.

Regarding `[Cl-].[Li+]` [LiCl], the tau phosphorylation result in [2] (both cells expressing pGFP-tau alone and coexpressing pGFP-tau and pALK.Fc, inhibition levels very similar) is “inhibited”.

For `N#CC(=C(/N)Sc1ccccc1N)/C(C#N)=C(\N)Sc1ccccc1N` [U0126], the ALK-mediated tau phosphorylation result in data set [2] is “significantly reduced”. The “ALK.Fc/Tau-mediated neurotoxicity (cell death)” value with HT22 cells is listed as “partially reduced”.

For “pCDK5 shRNA #1: CDK5 shRNA having the nucleotide sequence of SEQ ID No. 1 (5′-TGACCAAGCTGCCAGACTA-3′)”, the “cell death induced by ALK/Tau” value with CDK5 is recorded as “reduced”.

As for `Cc1cc(O)c2c(c1)C(=O)c1cc(O)cc(O)c1C2=O` [emodin], the “tau aggregation caused by ALK” value in [3] is “inhibited”. Moreover, in data set [4], the “PHF-1 expression (phosphorylated tau)” value is recorded as “decreasing” and the “tau-1 expression (unphosphorylated tau)” value is on record as “increased”. Also, in data set [5], the IC50 – broadly, the concentration that gives 50% inhibition – is 1 to 5 µM.

On to `C[C@@H](Oc1cc(-c2cnn(C3CCNCC3)c2)cnc1N)c1c(Cl)ccc(F)c1Cl` [PF-2341066], for which the “memory decline in all three types of behavior tests” value with TauC3 AD model mice is listed as “suppressed”. In addition, in data set [6] (TauC3 mouse brain), the “ERK1/2 activity in brain” value is listed as “reduced”. In addition, the “phosphorylation of tau in brain (PHF1, pT231, CP13, 12E8)” value in data set [6] (TauC3 mouse brain (hippocampus)) was “significantly inhibited”.
